Assay results taken from patent US9056069B2, “Cancer therapy based on tumor associated antigens derived from cyclin D1” (IMMATICS BIOTECHNOLOGIES GMBH, priority 2010, dated 2015).
Entries after “also recorded” stand apart in the source; their conditions may differ.

Experiments:
[1] = test system: HLA class-II; experiment: Binding to HLA class-II; design: species or system human
[2] = test system: mRCC; type: in vivo, human
Excerpt: Some patients received a prior TKI therapy with sunitinib or sorafenib, others a prior cytokine therapy with interferon or interleukin.
Both patient groups were followed up for progression-free survival (PFS) and overall survival (OS).

[3] = test system: HLA-A*02 positive tumor cells endogenously expressing Cyclin D1; details: allo-restricted T cells of HLA-A2-negative donors; cited from earlier work
[4] = test system: CTL; details: healthy donors, colon cancer and mantle cell lymphoma patients; autologous CD40-activated B cells as APCs; cited from earlier work

Molecule: NPPSMVAAGSVVAAV (listed as Homo sapiens) [CCN-003, cyclin D1-derived peptide, aa 198-212]
- HLA restriction [1]: appears DRB1*0401 restricted
- binding to HLA class-II [1]: binds to HLA class-II

Molecule: O=P1(N(CCCl)CCCl)NCCCO1 (stereo not shown) [cyclophosphamide]
- effect of prior low-dose cyclophosphamide treatment on outcome of vaccine treatment ([2]; cyclophosphamide 300 mg/m2 single infusion before vaccination): further significantly improved the outcome

Molecule: LLGATCMFV (listed as Homo sapiens) [CCN-001, cyclin D1-derived peptide, aa 101-109]
- lysis of tumor cells by T cell clones recognizing the peptide [3]: could lyse HLA-A*02 positive tumor cells endogenously expressing Cyclin D1
- generation of epitope-specific CTL [4]: could be generated from HLA-A2+ donors
- survival of patients responding against CCN-001 versus non-CCN-001-responding patients ([2]; all vaccinated patients): significant longer survival; also recorded: survive significantly longer
- favorable effect of T cell response against CCN-001 on survival ([2]; patient group pretreated with cyclophosphamide): even more evident
